In ChEMBL document CHEMBL1143296, “Thienopyrimidine-based dual EGFR/ErbB-2 inhibitors” (Bioorg Med Chem Lett, 2009):

What was measured:
[1] = test system: BT-474; assay: Antiproliferative activity against human BT474 cells expressing ErbB2 after 72 hrs by CTG assay; conditions: BT-474, 72 h
[2] = target: T1, Receptor tyrosine-protein kinase erbB-2 (Homo sapiens, UniProt P04626)
[3] = test system: HN5; assay: Antiproliferative activity against human HN5 cells expressing EGFR after 72 hrs by CTG assay; conditions: HN5, 72 h
[4] = target: Epidermal growth factor receptor (Homo sapiens, UniProt P00533)
[5] = test system: HFF; assay: Antiproliferative activity against HFF after 72 hrs by CTG assay; conditions: Homo sapiens
[6] = test system: HN5; assay: Antiproliferative activity against human HN5 cells expressing EGFR by MEB assay
[7] = test system: HFF; assay: Antiproliferative activity against HFF after 72 hrs by MEB assay; conditions: Homo sapiens
[8] = test system: BT-474; assay: Antiproliferative activity against human BT474 cells expressing ErbB2 by MEB assay
[9] = target: T1, Receptor tyrosine-protein kinase erbB-2; assay: Inhibition of ErbB2 intracellular autophosphorylation of ErbB2 in human BT474 cells by DELFIA assay; assay type: cell-based, BT-474

Chain of Epidermal growth factor receptor (P00533 whole entry): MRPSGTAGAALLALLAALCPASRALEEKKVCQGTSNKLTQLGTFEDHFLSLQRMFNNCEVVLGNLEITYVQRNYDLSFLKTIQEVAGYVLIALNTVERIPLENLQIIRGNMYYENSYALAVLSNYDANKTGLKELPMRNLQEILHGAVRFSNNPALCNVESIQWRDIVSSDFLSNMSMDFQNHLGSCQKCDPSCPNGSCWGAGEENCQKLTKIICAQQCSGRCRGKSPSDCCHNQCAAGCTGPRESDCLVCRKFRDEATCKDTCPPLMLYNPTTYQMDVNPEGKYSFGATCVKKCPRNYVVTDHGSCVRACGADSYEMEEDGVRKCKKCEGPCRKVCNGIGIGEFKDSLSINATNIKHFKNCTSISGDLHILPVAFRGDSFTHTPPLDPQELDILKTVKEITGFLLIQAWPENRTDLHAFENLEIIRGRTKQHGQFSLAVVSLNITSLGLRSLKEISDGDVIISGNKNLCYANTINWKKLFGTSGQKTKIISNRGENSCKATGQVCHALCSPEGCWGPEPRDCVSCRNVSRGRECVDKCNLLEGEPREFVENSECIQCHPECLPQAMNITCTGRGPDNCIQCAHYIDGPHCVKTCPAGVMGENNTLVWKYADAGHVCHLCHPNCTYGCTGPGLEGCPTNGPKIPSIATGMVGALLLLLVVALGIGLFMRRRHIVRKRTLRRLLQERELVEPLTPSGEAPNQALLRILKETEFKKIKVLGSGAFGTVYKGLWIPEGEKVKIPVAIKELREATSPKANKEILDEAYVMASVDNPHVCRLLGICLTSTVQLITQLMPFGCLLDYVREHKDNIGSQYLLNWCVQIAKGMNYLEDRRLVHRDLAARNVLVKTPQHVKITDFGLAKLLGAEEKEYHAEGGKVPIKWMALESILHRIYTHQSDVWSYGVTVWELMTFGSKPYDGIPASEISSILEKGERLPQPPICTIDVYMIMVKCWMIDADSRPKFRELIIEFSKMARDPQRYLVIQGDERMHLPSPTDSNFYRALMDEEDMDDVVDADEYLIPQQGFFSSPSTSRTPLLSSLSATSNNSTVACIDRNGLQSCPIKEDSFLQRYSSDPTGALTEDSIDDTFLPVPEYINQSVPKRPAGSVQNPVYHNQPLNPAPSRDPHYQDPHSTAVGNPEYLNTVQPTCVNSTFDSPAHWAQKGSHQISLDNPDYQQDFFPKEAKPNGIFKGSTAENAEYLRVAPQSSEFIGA
T1 sequence (P04626 whole entry): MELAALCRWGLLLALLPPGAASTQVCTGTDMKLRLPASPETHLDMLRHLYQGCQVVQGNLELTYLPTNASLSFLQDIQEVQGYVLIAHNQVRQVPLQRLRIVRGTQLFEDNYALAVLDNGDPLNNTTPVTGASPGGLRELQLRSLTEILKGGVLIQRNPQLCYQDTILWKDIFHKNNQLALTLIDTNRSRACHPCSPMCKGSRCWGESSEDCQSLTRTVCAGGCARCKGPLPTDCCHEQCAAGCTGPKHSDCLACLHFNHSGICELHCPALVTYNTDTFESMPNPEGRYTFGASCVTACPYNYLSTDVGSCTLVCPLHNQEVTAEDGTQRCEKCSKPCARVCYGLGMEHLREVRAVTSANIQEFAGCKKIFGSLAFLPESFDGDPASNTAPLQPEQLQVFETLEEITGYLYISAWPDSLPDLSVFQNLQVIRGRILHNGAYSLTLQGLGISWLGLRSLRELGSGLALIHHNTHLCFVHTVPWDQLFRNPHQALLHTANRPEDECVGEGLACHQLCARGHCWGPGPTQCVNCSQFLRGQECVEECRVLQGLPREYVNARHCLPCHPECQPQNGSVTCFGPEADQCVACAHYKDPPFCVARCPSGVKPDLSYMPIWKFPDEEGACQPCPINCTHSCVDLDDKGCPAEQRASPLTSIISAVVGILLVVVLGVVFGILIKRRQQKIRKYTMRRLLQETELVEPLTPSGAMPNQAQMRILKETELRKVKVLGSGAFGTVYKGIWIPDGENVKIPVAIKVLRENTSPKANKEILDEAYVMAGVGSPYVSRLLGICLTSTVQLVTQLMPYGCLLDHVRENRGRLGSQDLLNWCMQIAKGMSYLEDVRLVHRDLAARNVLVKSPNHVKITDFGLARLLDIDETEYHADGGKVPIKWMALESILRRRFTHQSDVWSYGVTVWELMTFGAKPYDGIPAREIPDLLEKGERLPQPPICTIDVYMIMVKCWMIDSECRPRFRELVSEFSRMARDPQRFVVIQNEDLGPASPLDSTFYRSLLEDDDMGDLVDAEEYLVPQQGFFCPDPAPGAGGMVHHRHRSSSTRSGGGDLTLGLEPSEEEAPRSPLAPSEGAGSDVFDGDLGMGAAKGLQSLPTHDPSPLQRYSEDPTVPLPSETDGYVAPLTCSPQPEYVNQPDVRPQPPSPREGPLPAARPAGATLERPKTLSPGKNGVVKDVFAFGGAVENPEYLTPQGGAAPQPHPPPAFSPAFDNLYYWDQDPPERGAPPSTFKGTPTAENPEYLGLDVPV

Structure (SMILES) | IC50 [1] [nM] | IC50 [2] [nM] | IC50 [4] [nM] | IC50 [8] [nM] | IC50 [9] [nM] | IC50 [3] [nM] | IC50 [5] [µM] | IC50 [6] [nM] | IC50 [7] [µM]
Fc1cccc(COc2ccc(Nc3ncnc4cc(-c5cccs5)sc34)cc2Cl)c1 | 5770 | 113 | 8 | – | – | 2190 | 10.7 | – | –
N#CCNCc1ccc(-c2cc3ncnc(Nc4ccc(OCc5cccc(F)c5)c(Cl)c4)c3s2)o1 | – | 68 | – | – | – | – | – | – | –
CCNCc1ccc(-c2cc3ncnc(Nc4ccc(OCc5cccc(F)c5)c(Cl)c4)c3s2)[nH]1 | – | 68 | 6 | – | – | – | – | – | –
CS(=O)(=O)CCNCc1cc(-c2cc3ncnc(Nc4ccc(OCc5cccc(F)c5)c(Cl)c4)c3s2)cs1 | – | 31 | 3 | 600 | – | – | – | 100 | > 30
CS(=O)(=O)CCNCc1ccc(-c2cc3ncnc(Nc4ccc(OCc5cccc(F)c5)c(Cl)c4)c3s2)[nH]1 | 630 | 113 | 7 | – | 431 | 770 | 3.73 | – | –
CN(C)Cc1ccc(-c2cc3ncnc(Nc4ccc(OCc5cccc(F)c5)c(Cl)c4)c3s2)o1 | 1880 | 146 | 2 | – | – | 1220 | 4.46 | – | –
CN(C)Cc1ccc(-c2cc3c(Nc4ccc(OCc5cccc(F)c5)c(Cl)c4)ncnc3s2)[nH]1 | – | 246 | 68 | – | – | – | – | – | –
Fc1cccc(COc2ccc(Nc3ncnc4cc(-c5ccco5)sc34)cc2Cl)c1 | 21200 | 709 | 10 | – | – | 8090 | > 30 | – | –
CCNCc1ccc(-c2cc3c(Nc4ccc(OCc5cccc(F)c5)c(Cl)c4)ncnc3s2)[nH]1 | – | 111 | 121 | – | – | – | – | – | –
CS(=O)(=O)CCNCc1ccc(-c2cc3c(Nc4ccc(OCc5cccc(F)c5)c(Cl)c4)ncnc3s2)s1 | – | 95 | 96 | – | – | – | – | – | –
Fc1cccc(COc2ccc(Nc3ncnc4sc(-c5cccs5)cc34)cc2Cl)c1 [GW684626B] | 3220 | 43 | 9 | – | – | 10100 | 9.72 | – | –
CN1CCN(Cc2ccc(-c3cc4ncnc(Nc5ccc(OCc6cccc(F)c6)c(Cl)c5)c4s3)o2)CC1 [GW784684X] | – | 250 | 5 | – | – | – | – | – | –
CS(=O)(=O)CCNCc1ccc(-c2ccc3ncnc(Nc4ccc(OCc5cccc(F)c5)c(Cl)c4)c3c2)o1 [LAPATINIB DITOSYLATE] | – | – | – | 100 | – | – | – | – | –

Further lines, with some results ahead:

IC50 [1] [nM] | IC50 [2] [nM] | IC50 [4] [nM] | IC50 [8] [nM] | IC50 [9] [nM] | Structure (SMILES) | IC50 [3] [nM] | IC50 [5] [µM] | IC50 [6] [nM] | IC50 [7] [µM]
– | 122 | 3 | 720 | – | OCc1ccc(-c2cc3ncnc(Nc4ccc(OCc5cccc(F)c5)c(Cl)c4)c3s2)o1 | – | – | 100 | 9.39
– | 121 | 68 | 540 | 826 | Fc1cccc(COc2ccc(Nc3ncnc4cc(-c5ccc[nH]5)sc34)cc2Cl)c1 | – | – | 570 | 2.37
– | 76 | 4 | – | – | CN(C)Cc1ccc(-c2cc3ncnc(Nc4ccc(OCc5cccc(F)c5)c(Cl)c4)c3s2)[nH]1 | – | – | – | –
– | 203 | 115 | 1980 | – | Fc1cccc(COc2ccc(Nc3ncnc4sc(-c5ccc[nH]5)cc34)cc2Cl)c1 | – | – | 2710 | > 3
420 | 71 | 1 | – | – | CS(=O)(=O)CCNCc1ccc(-c2cc3ncnc(Nc4ccc(OCc5cccc(F)c5)c(Cl)c4)c3s2)o1 | 410 | > 30 | – | –
– | – | – | 730 | – | CS(=O)(=O)CCNCc1cc(-c2cc3ncnc(Nc4ccc(OCc5cccc(F)c5)c(Cl)c4)c3s2)co1 | – | – | – | 7.95
420 | 6 | 12 | – | – | CS(=O)(=O)CCNCc1ccc(-c2cc3c(Nc4ccc(OCc5cccc(F)c5)c(Cl)c4)ncnc3s2)o1 | 420 | 19.5 | – | –
– | 153 | 138 | – | – | CS(=O)(=O)CCNCc1ccc(-c2cc3c(Nc4ccc(OCc5cccc(F)c5)c(Cl)c4)ncnc3s2)[nH]1 | – | – | – | –
– | 898 | 54 | – | – | Fc1cccc(COc2ccc(Nc3ncnc4sc(-c5ccc(CNCc6ccccc6)o5)cc34)cc2Cl)c1 | – | – | – | –
– | 299 | 304 | – | – | CS(=O)(=O)CCNCc1cc(-c2cc3c(Nc4ccc(OCc5cccc(F)c5)c(Cl)c4)ncnc3s2)cs1 [GSK-300014A] | – | – | – | –
> 30000 | 14 | 15 | – | – | Fc1cccc(COc2ccc(Nc3ncnc4sc(-c5ccco5)cc34)cc2Cl)c1 [GSK-969786A] | > 30000 | > 30 | – | –
